The star is where a group is joined. Palmitoyl = CCCCCCCCCCCCCCCC(=O)*
B1: Pal-KTSKS-OH (peptide)
peptide: Palmitoyl-KTSKS-OH
SMILES: CCCCCCCCCCCCCCCC(=O)N[C@@H](CCCCN)C(=O)N[C@H](C(=O)N[C@@H](CO)C(=O)N[C@@H](CCCCN)C(=O)N[C@@H](CO)C(=O)O)[C@@H](C)O

Experiments:
[1] = system: P. acnes; assay: P. acnes growth curve (time to OD600 nm = 0.5); type: cell-based, Propionibacterium acnes; conditions: for Time (in hour) to reach OD600 nm = 0.5: vehicle 42-44 h
Description: 1—P. acnes growth curve (same protocol as described above at point 1.4)
P. acnes is thawed and grown over 3 days in M20 media. Then, optical density at 600 nm (OD600) is measured and 2×10^6 CFU*/mL are plated in well plates. P. acnes is then treated with 6 ppm, 9 ppm and 12 ppm of peptides. To follow bacterial cell multiplication, OD600 is measured regularly for about 1 week. […] Statistical evaluations are performed on results using a Student t test. Two independent experiments are performed (N=2).

[2] = system: normal human keratinocytes (NHK); assay: Involucrin quantification by immunohistochemistry in NHK; type: cell-based; conditions: 5 ppm
Description: Normal human keratinocytes (NHK) are grown on wells plate. When subconfluence was reached, cells received various concentrations of the peptides. After few days, evaluation of differentiation is compared to solvent control under microscope and cells are fixed to allow the study of involucrin by immunohistochemistry.
Involucrin is an early marker of keratinocytes differentiation. The below table show the percentage of variation of involucrin vs. Control.

[3] = biological target: extracellular lipases of P. acnes (Propionibacterium acnes); assay: cell-based or functional assay

Row | Molecule | Delay in P. acnes growth versus vehicle ([1]; 6 ppm) | Time (in hour) to reach OD600 nm = 0.5 ([1]; 6 ppm) [h] | Delay in P. acnes growth versus vehicle ([1]; 9 ppm) | Time (in hour) to reach OD600 nm = 0.5 ([1]; 9 ppm) [h] | Delay in P. acnes growth versus vehicle ([1]; 12 ppm) | Time (in hour) to reach OD600 nm = 0.5 ([1]; 12 ppm) [h] | Involucrin (% var vs. Control) [2] | Reduction in lipase activity of P. acnes (4-MUO fluorescent probe), variation (%) vs solvent control, 6 ppm of peptide [3] [%] | Reduction in lipase activity of P. acnes (4-MUO fluorescent probe), variation (%) vs solvent control, 9 ppm of peptide [3] [%] | Reduction in lipase activity of P. acnes (4-MUO fluorescent probe), variation (%) vs solvent control, 12 ppm of peptide [3] [%]
1 | Pal-GKTSKS-OH | +2 h | 45.6 | +12 h | 56.2 | +26 h | 70.2 | – | – | – | –
2 | Pal-KTSKSA-OH (Palmitoyl-KTSKSA-OH; SMILES CCCCCCCCCCCCCCCC(=O)N[C@@H](CCCCN)C(=O)N[C@H](C(=O)N[C@@H](CO)C(=O)N[C@@H](CCCCN)C(=O)N[C@@H](CO)C(=O)N[C@@H](C)C(=O)O)[C@@H](C)O) [other preferred peptide of the invention, palmitoyl hexapeptide KTSKSA] | +5 h | 47.3 | +15 h | 57.9 | +18 h | 60.5 | +152%; p < 0.01 | – | – | –
3 | Pal-KTSKT-OH (Palmitoyl-KTSKT-OH; SMILES CCCCCCCCCCCCCCCC(=O)N[C@@H](CCCCN)C(=O)N[C@H](C(=O)N[C@@H](CO)C(=O)N[C@@H](CCCCN)C(=O)N[C@H](C(=O)O)[C@@H](C)O)[C@@H](C)O) [other preferred peptide of the invention, palmitoyl pentapeptide KTSKT] | +5 h | 47.7 | +13 h | 55.2 | +43 h | 85.1 | +125%; p < 0.01 | – | – | –
4 | B1 | – | – | – | – | – | – | – | -22 | -64 | -88

Source: patent US20230255873A1, “COSMETIC OR DERMATOLOGICAL PEPTIDE-BASED TREATMENT OF THE SKIN AND ITS INTEGUMENTS” (Sederma, priority 2020, published 2023)
